PubChem BioAssay (NCI)
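All cell lines were grown in 96-well plates and treated with compound for 48 hours. At the GI50, growth is halved. At the TGI there is no net growth.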

Experiments:
Test in all cases: DTP human tumour cell line panel, 48 h
UACC-62 melanoma = system: UACC-62 melanoma
CCRF-CEM leukemia = system: CCRF-CEM leukemia
NCI-H23 lung = system: NCI-H23 lung
U251 CNS = system: U251 CNS
K-562 leukemia = system: K-562 leukemia
DLD-1 colon = system: DLD-1 colon
SF-268 CNS = system: SF-268 CNS
DMS 114 small cell lung = system: DMS 114 small cell lung
786-0 renal = system: 786-0 renal
RPMI-8226 leukemia = system: RPMI-8226 leukemia
UO-31 renal = system: UO-31 renal
M19-MEL melanoma = system: M19-MEL melanoma
LXFL 529 NSCLC = system: LXFL 529 NSCLC
OVCAR-8 ovarian = system: OVCAR-8 ovarian
HOP-18 NSCLC = system: HOP-18 NSCLC
TK-10 renal = system: TK-10 renal
SNB-75 CNS = system: SNB-75 CNS
NCI-H460 lung = system: NCI-H460 lung
KM12 colon = system: KM12 colon
M14 melanoma = system: M14 melanoma
MALME-3M melanoma = system: MALME-3M melanoma
LOX IMVI melanoma = system: LOX IMVI melanoma
OVCAR-4 ovarian = system: OVCAR-4 ovarian
SR leukemia = system: SR leukemia
NCI-H226 lung = system: NCI-H226 lung
SW-620 colon = system: SW-620 colon
CAKI-1 renal = system: CAKI-1 renal
MOLT-4 leukemia = system: MOLT-4 leukemia
SN12C renal = system: SN12C renal
SF-295 CNS = system: SF-295 CNS
SK-MEL-28 melanoma = system: SK-MEL-28 melanoma
SF-539 CNS = system: SF-539 CNS
IGROV1 ovarian = system: IGROV1 ovarian
RXF 393 renal = system: RXF 393 renal
HL-60(TB) leukemia = system: HL-60(TB) leukemia
COLO 205 colon = system: COLO 205 colon
NCI-H522 lung = system: NCI-H522 lung
OVCAR-5 ovarian = system: OVCAR-5 ovarian
HT29 colon = system: HT29 colon
SK-MEL-5 melanoma = system: SK-MEL-5 melanoma
UACC-257 melanoma = system: UACC-257 melanoma
SK-MEL-2 melanoma = system: SK-MEL-2 melanoma
HCT-15 colon = system: HCT-15 colon
ACHN renal = system: ACHN renal
A549 NSCLC = system: A549 NSCLC
HOP-62 NSCLC = system: HOP-62 NSCLC
HCT-116 colon = system: HCT-116 colon
SK-OV-3 ovarian = system: SK-OV-3 ovarian
DMS 273 small cell lung = system: DMS 273 small cell lung
SNB-19 CNS = system: SNB-19 CNS
SNB-78 CNS = system: SNB-78 CNS
A498 renal = system: A498 renal
KM20L2 colon = system: KM20L2 colon
HOP-92 NSCLC = system: HOP-92 NSCLC
OVCAR-3 ovarian = system: OVCAR-3 ovarian
HCC-2998 colon = system: HCC-2998 colon
EKVX NSCLC = system: EKVX NSCLC
XF 498 CNS = system: XF 498 CNS

[N-]=[N+]=Nc1cc(=O)n(-c2ccccc2)c2ccccc12
TGI (UACC-62 melanoma): > 100 µM | TGI (CCRF-CEM leukemia): > 100 µM | TGI (NCI-H23 lung): > 100 µM | TGI (U251 CNS): > 100 µM | TGI (K-562 leukemia): > 100 µM | TGI (DLD-1 colon): > 100 µM | TGI (SF-268 CNS): > 100 µM | TGI (DMS 114 small cell lung): > 100 µM | TGI (786-0 renal): > 100 µM | TGI (RPMI-8226 leukemia): > 100 µM | TGI (UO-31 renal): > 100 µM | TGI (M19-MEL melanoma): > 100 µM | TGI (LXFL 529 NSCLC): > 100 µM | TGI (OVCAR-8 ovarian): > 100 µM | TGI (HOP-18 NSCLC): > 100 µM | TGI (TK-10 renal): > 100 µM | TGI (SNB-75 CNS): > 100 µM | TGI (NCI-H460 lung): > 100 µM | TGI (KM12 colon): > 100 µM | TGI (M14 melanoma): > 100 µM | TGI (MALME-3M melanoma): > 100 µM | TGI (LOX IMVI melanoma): > 100 µM | TGI (OVCAR-4 ovarian): > 100 µM | TGI (SR leukemia): > 100 µM | TGI (NCI-H226 lung): > 100 µM | TGI (SW-620 colon): > 100 µM | TGI (CAKI-1 renal): > 100 µM | TGI (MOLT-4 leukemia): > 100 µM | TGI (SN12C renal): > 100 µM | TGI (SF-295 CNS): > 100 µM | TGI (SK-MEL-28 melanoma): > 100 µM | TGI (SF-539 CNS): > 100 µM | TGI (IGROV1 ovarian): > 100 µM | TGI (RXF 393 renal): > 100 µM | TGI (HL-60(TB) leukemia): > 100 µM | TGI (COLO 205 colon): > 100 µM | TGI (NCI-H522 lung): > 100 µM | TGI (OVCAR-5 ovarian): > 100 µM | TGI (HT29 colon): > 100 µM | TGI (SK-MEL-5 melanoma): > 100 µM | TGI (UACC-257 melanoma): > 100 µM | TGI (SK-MEL-2 melanoma): > 100 µM | TGI (HCT-15 colon): > 100 µM | TGI (ACHN renal): > 100 µM | TGI (A549 NSCLC): > 100 µM | TGI (HOP-62 NSCLC): > 100 µM | TGI (HCT-116 colon): > 100 µM | TGI (SK-OV-3 ovarian): > 100 µM | TGI (DMS 273 small cell lung): > 100 µM

COc1cc2c(c(OC)c1OC)-c1ccc(SC)c(=O)cc1[C@@H](NCc1ccccc1[N+](=O)[O-])CC2
TGI (UACC-62 melanoma): 18.2 µM | TGI (CCRF-CEM leukemia): 38.5 µM | TGI (NCI-H23 lung): 0.0237 µM | TGI (SNB-19 CNS): > 100 µM | TGI (U251 CNS): 0.0419 µM | GI50 (K-562 leukemia): 0.171 µM | TGI (K-562 leukemia): > 100 µM | TGI (DLD-1 colon): > 100 µM | TGI (SNB-78 CNS): 40.6 µM | TGI (DMS 114 small cell lung): 0.0243 µM | TGI (786-0 renal): 41.5 µM | TGI (RPMI-8226 leukemia): 23.1 µM | TGI (UO-31 renal): > 100 µM | TGI (M19-MEL melanoma): > 100 µM | TGI (LXFL 529 NSCLC): 15.8 µM | TGI (A498 renal): 0.0283 µM | TGI (OVCAR-8 ovarian): 0.0499 µM | GI50 (HOP-18 NSCLC): > 100 µM | TGI (HOP-18 NSCLC): > 100 µM | TGI (KM20L2 colon): 0.0112 µM | TGI (TK-10 renal): > 100 µM | TGI (HOP-92 NSCLC): > 100 µM | GI50 (SNB-75 CNS): 1.53 µM | TGI (NCI-H460 lung): 0.0826 µM | TGI (KM12 colon): 0.117 µM | TGI (OVCAR-3 ovarian): 0.0293 µM | TGI (M14 melanoma): 0.21 µM | TGI (MALME-3M melanoma): > 100 µM | TGI (LOX IMVI melanoma): 19 µM | TGI (OVCAR-4 ovarian): > 100 µM | TGI (NCI-H226 lung): 0.0558 µM | TGI (SW-620 colon): > 100 µM | TGI (CAKI-1 renal): > 100 µM | TGI (MOLT-4 leukemia): > 100 µM | TGI (HCC-2998 colon): 0.0407 µM | TGI (SF-295 CNS): > 100 µM | TGI (SK-MEL-28 melanoma): > 100 µM | TGI (SF-539 CNS): 0.0199 µM | TGI (EKVX NSCLC): > 100 µM | TGI (COLO 205 colon): 0.0556 µM | TGI (NCI-H522 lung): 0.0298 µM | GI50 (OVCAR-5 ovarian): > 100 µM | TGI (OVCAR-5 ovarian): > 100 µM | TGI (HT29 colon): 0.0146 µM | TGI (UACC-257 melanoma): 47.2 µM | TGI (HCT-15 colon): 0.0487 µM | TGI (ACHN renal): > 100 µM | TGI (A549 NSCLC): > 100 µM | TGI (HOP-62 NSCLC): > 100 µM | TGI (HCT-116 colon): 0.0278 µM

O=C1CC[C@H](NC(=O)Cc2ccccc2)C(=O)N1
TGI (UACC-62 melanoma): > 1250 µM | TGI (CCRF-CEM leukemia): > 1250 µM | TGI (NCI-H23 lung): > 1250 µM | TGI (SNB-19 CNS): > 1250 µM | TGI (U251 CNS): > 1250 µM | TGI (K-562 leukemia): > 1250 µM | TGI (DLD-1 colon): > 1250 µM | TGI (SF-268 CNS): > 1250 µM | TGI (786-0 renal): > 1250 µM | TGI (RPMI-8226 leukemia): > 1250 µM | TGI (UO-31 renal): > 1250 µM | TGI (M19-MEL melanoma): > 1250 µM | TGI (LXFL 529 NSCLC): > 1250 µM | TGI (OVCAR-8 ovarian): > 1250 µM | TGI (HOP-18 NSCLC): > 1250 µM | TGI (KM20L2 colon): > 1250 µM | TGI (TK-10 renal): > 1250 µM | TGI (XF 498 CNS): > 1250 µM | TGI (SNB-75 CNS): > 1250 µM | TGI (NCI-H460 lung): > 1250 µM | TGI (KM12 colon): > 1250 µM | TGI (M14 melanoma): > 1250 µM | TGI (MALME-3M melanoma): > 1250 µM | TGI (LOX IMVI melanoma): > 1250 µM | TGI (OVCAR-4 ovarian): > 1250 µM | TGI (SR leukemia): > 1250 µM | TGI (NCI-H226 lung): > 1250 µM | TGI (SW-620 colon): > 1250 µM | TGI (CAKI-1 renal): > 1250 µM | TGI (MOLT-4 leukemia): > 1250 µM | TGI (SN12C renal): > 1250 µM | TGI (HCC-2998 colon): > 1250 µM | TGI (SF-295 CNS): > 1250 µM | TGI (SK-MEL-28 melanoma): > 1250 µM | TGI (SF-539 CNS): > 1250 µM | TGI (EKVX NSCLC): > 1250 µM | TGI (IGROV1 ovarian): > 1250 µM | TGI (RXF 393 renal): > 1250 µM | TGI (HL-60(TB) leukemia): > 1250 µM | TGI (COLO 205 colon): > 1250 µM | TGI (NCI-H522 lung): > 1250 µM | TGI (OVCAR-5 ovarian): > 1250 µM | TGI (HT29 colon): > 1250 µM | TGI (UACC-257 melanoma): > 1250 µM | TGI (SK-MEL-2 melanoma): > 1250 µM | TGI (HCT-15 colon): > 1250 µM | TGI (ACHN renal): > 1250 µM | TGI (A549 NSCLC): > 1250 µM | TGI (HOP-62 NSCLC): > 1250 µM | TGI (HCT-116 colon): > 1250 µM | TGI (SK-OV-3 ovarian): > 1250 µM | TGI (DMS 273 small cell lung): > 1250 µM
